Patent publication US5075287A, “Muramyl peptide derivatives and immunoregulating compositions containing them” (priority 1989, dated 1991)
Where two headings read alike, the source gives them in different places.

What was measured:
[1] = system: hepatitis B virus surface antigen (HBs); assay: Hepatitis-vaccine enhancing activity (adjuvant activity): anti-HBs IgG in mouse serum by ELISA; format: in vivo, female CDF1 mice; conditions: Experiment 1, 5000-fold dilution
Summary of the method: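 Female CDF1 mice (n=7) given 0.2 ml i.p. of compound in lipid microspheres (1 mg/ml) mixed 1:1 with HBs antigen (50 μg/ml), boosted identically at 3 weeks. Sera from weekly fundus bleeds before and after boost. Anti-HBs IgG measured by ELISA.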

[2] = system: influenza HA vaccine (B/Nagasaki/1/87 strain); format: in vivo, female CDF1 mice; conditions: Experiment 1, 5000-fold dilution
[3] = system: L-1210 mouse leukemia cells; assay: Activation of macrophages (growth inhibition of tumor cells by intraperitoneal macrophages of treated mice, MTT assay); format: cell-based; conditions: macrophages taken 3 days after i.p. 0.2 ml of 500 μg/ml, macrophage:L-1210 20:1, 72 hours
Procedure: A compound of the present invention was dissolved in lipidmicrosphere to obtain a solution in a concentration of 500μg/ml, and 0.2 ml of such solution was intraperitoneally administered to each mouse in one group consisting of seven female CDF1 mice. Intraperitoneal macrophages obtained three days after the administration and L-1210 mouse leukemia cells were mixed in the ratio of cell numbers of 20:1, respectively. Two hundred μl of the mixture was placed in each well of one sheet of 96 well microtiter plate. After 72 hours, the increase of the cell number in each well was determined by a MTT assay method. The ratio of the cell number for the mixture of the L-1210 cells and the macrophage relative to the cell number for the L-1210 cells only(growth inhibitory ratio) was determined, and the results are shown in Table 3.

[4] = 1 W after i.p. administration, compound in lipidmicrosphere + HBs
[5] = 4 W (after secondary stimulation at 3 weeks)
[6] = 5 W (after secondary stimulation at 3 weeks)
[7] = 1 W after i.p. administration, compound in lipidmicrosphere + HA vaccine

SMILES	Anti-HBs IgG antibody level in serum (ELISA absorbance at 415 nm) [1, 4] [O.D 415 nm]	Anti-HBs IgG antibody level in serum (ELISA absorbance at 415 nm) ([1]; 2 W) [O.D 415 nm]	Anti-HBs IgG antibody level in serum (ELISA absorbance at 415 nm) ([1]; 3 W) [O.D 415 nm]	Anti-HBs IgG antibody level in serum (ELISA absorbance at 415 nm) [1, 5] [O.D 415 nm]	Anti-HBs IgG antibody level in serum (ELISA absorbance at 415 nm) [1, 6] [O.D 415 nm]	Anti HA serum antigen value (average value ± S.D.) [2, 7] [O.D 415 nm]	Anti HA serum antigen value (average value ± S.D.) ([2]; 2 W) [O.D 415 nm]	Anti HA serum antigen value (average value ± S.D.) ([2]; 3 W) [O.D 415 nm]	Anti HA serum antigen value (average value ± S.D.) [2, 5] [O.D 415 nm]	Anti HA serum antigen value (average value ± S.D.) [2, 6] [O.D 415 nm]	Growth inhibitory ratio of L-1210 mouse leukemia cells [3] [%]
CCCCCCCCCCCCCCCCCC(=O)OC[C@H]1O[C@@H](SC(=O)C(CCCCCCCCCCCCCC)CCCCCCCCCCCCCC)[C@H](NC(C)=O)[C@@H](O[C@H](C)C(=O)N[C@@H](C)C(=O)N[C@H](CCC(=O)OC)C(N)=O)[C@@H]1O [Example 10, N-[2-0-{2-Acetamido-2,3-dideoxy-6-0-octadecanoyl-1-S-(2-tetradecylhexadecanoyl)-1-thio-β-D-glucopyranos-3-yl}-D-lactoyl]-L-alanyl-D-isoglutamine methylester]	0	0.061 ± 0.002	0.114 ± 0.003	0.778 ± 0.024	0.878 ± 0.009	0.005 ± 0.001	0.153 ± 0.003	0.280 ± 0.000	1.149 ± 0.018	1.203 ± 0.014	76.6
CCCCCCCCCCCCCC(=O)O[C@H](CCCCCCCCCCC)CC(=O)O[C@H]1O[C@H](COC(=O)CCCCCCCCC)[C@@H](O)[C@H](O[C@H](C)C(=O)N[C@@H](C)C(=O)N[C@H](CCC(=O)OC)C(N)=O)[C@H]1NC(C)=O [Example 11, N-[2-0-{2-Acetamido-2,3-dideoxy-6-0-decanoyl-1-0((3R)-3-tetradecanoyloxytetradecanoyl)-α-D-glucopyranos-3-yl}-D-lactoyl]-L-alanyl-D-isoglutaminemethylester]	0.010 ± 0.002	0.083 ± 0.002	0.124 ± 0.003	0.602 ± 0.009	0.716 ± 0.020	0	0.073 ± 0.000	0.160 ± 0.005	1.059 ± 0.016	1.050 ± 0.003	59.7
CCCCCCCCCCCCCC(=O)OC[C@H]1O[C@H](OC(=O)C[C@@H](CCCCCCCCCCC)OC(=O)CCCCCCCCCCCCC)[C@H](NC(C)=O)[C@@H](O[C@H](C)C(=O)N[C@@H](C)C(=O)N[C@H](CCC(=O)OC)C(N)=O)[C@@H]1O [Example 12, N-[2-0-{2-Acetamido-2,3-dideoxy-6-0-tetradecanoyl-1-0-((3R)-3-tetradecanoyloxytetradecanoyl)-α-D-glucopyranos-3yl}-D-lactoyl]-L-alanyl-D-isoglutamine methylester]	0.007 ± 0.003	0.109 ± 0.002	0.111 ± 0.001	0.608 ± 0.021	0.695 ± 0.021	0	0.105 ± 0.004	0.176 ± 0.002	1.039 ± 0.015	1.050 ± 0.008	79.0
CCCCCCCCCCCCCCCCCC(=O)OC[C@H]1O[C@H](OC(=O)C[C@@H](CCCCCCCCCCC)OC(=O)CCCCCCCCCCCCC)[C@H](NC(C)=O)[C@@H](O[C@H](C)C(=O)N[C@@H](C)C(=O)N[C@H](CCC(=O)OC)C(N)=O)[C@@H]1O [Example 13, N-[2-0-{2-Acetamido-2,3-dideoxy-6-0-octadecanoyl-1-0-((3R)-3-tetradecanoyloxytetradecanoyl)-α-D-glucopyranos-3-yl}-D-lactoyl]-L-alanyl-D-isoglutamine methylester]	0	0.081 ± 0.003	0.126 ± 0.003	0.635 ± 0.011	0.742 ± 0.016	0	0.088 ± 0.004	0.140 ± 0.001	0.868 ± 0.010	0.824 ± 0.002	39.7
CCCCCCCCCCCCCC(=O)O[C@H](CCCCCCCCCCC)CC(=O)S[C@@H]1O[C@H](COC(=O)CCCCCCCCC)[C@@H](O)[C@H](O[C@H](C)C(=O)N[C@@H](C)C(=O)N[C@H](CCC(=O)OC)C(N)=O)[C@H]1NC(C)=O [Example 14, N-[2-0-{2-Acetamido-2,3-dideoxy-6-0-decanoyl-1-S-((3R)-R-tetradecanoyloxytetradecanoyl)-1-thio-β-D-glucopyranos-3yl}-D-lactoyl]-L-alanyl-D-isoglutamine methylester]	0	0.071 ± 0.000	0.104 ± 0.003	0.784 ± 0.022	0.846 ± 0.024	0	0.110 ± 0.003	0.186 ± 0.007	0.974 ± 0.006	0.954 ± 0.002	96.4
CCCCCCCCCCCCCC(=O)OC[C@H]1O[C@@H](SC(=O)C[C@@H](CCCCCCCCCCC)OC(=O)CCCCCCCCCCCCC)[C@H](NC(C)=O)[C@@H](O[C@H](C)C(=O)N[C@@H](C)C(=O)N[C@H](CCC(=O)OC)C(N)=O)[C@@H]1O [Example 15]	0	0.085 ± 0.002	0.129 ± 0.001	0.788 ± 0.008	0.905 ± 0.020	0.007 ± 0.000	0.119 ± 0.005	0.218 ± 0.006	1.249 ± 0.013	1.262 ± 0.017	87.5
CCCCCCCCCCCCCCCCCC(=O)OC[C@H]1O[C@@H](SC(=O)C[C@@H](CCCCCCCCCCC)OC(=O)CCCCCCCCCCCCC)[C@H](NC(C)=O)[C@@H](O[C@H](C)C(=O)N[C@@H](C)C(=O)N[C@H](CCC(=O)OC)C(N)=O)[C@@H]1O [Example 16, N-[2-0-{2-Acetamido-2,3-dideoxy-6-0-octadecanoyl-1-S-((3R)-3-tetradecanoyloxytetradecanoyl)-1-thio-β-D-glucopyranos-3-yl}-D-lactoyl]-L-alanyl-D-isoglutamine methylester]	0	0.079 ± 0.004	0.103 ± 0.004	0.850 ± 0.008	0.903 ± 0.021	0.001 ± 0.001	0.145 ± 0.004	0.257 ± 0.010	1.251 ± 0.010	1.262 ± 0.026	76.3
